Assay results from ChEMBL document CHEMBL1157272, “Four aristolochic acid esters of rearranged ent-elemane sesquiterpenes from aristolochia heterophylla” (J Nat Prod, 1999).
pIC50: −log10 of the molar value.

Assay: Cytotoxicity against human HepG2(2.2.15) cells
Format: functional, cell-based
C=C[C@@]1(C)CCC=C(C[C@H](C)OC(=O)c2cc3c(c4c2c([N+](=O)[O-])cc2c(OC)cccc24)OCO3)[C@H]1C(=C)C=O [ARISTOPHYLLIDE A] showed a pIC50 of 5.29.
In the case of C=C[C@@]1(C)CCC=C(C[C@@H](C)OC(=O)c2cc3c(c4c2c([N+](=O)[O-])cc2c(OC)cccc24)OCO3)[C@@H]1C(=C)C=O [ARISTOPHYLLIDE B], the pIC50 was 5.03.
In the case of C=C[C@@]1(C)CCC=C(C[C@H](C)OC(=O)c2cc3c(c4c2c([N+](=O)[O-])cc2ccccc24)OCO3)[C@H]1C(=C)C=O [ARISTOPHYLLIDE C], the pIC50 was 5.21.
Work on C=C[C@@]1(C)CCC=C(C[C@@H](C)OC(=O)c2cc3c(c4c2c([N+](=O)[O-])cc2ccccc24)OCO3)[C@@H]1C(=C)C=O [ARISTOPHYLLIDE D] yielded a pIC50 of 4.88.
